Assay type in all cases: functional
For assay [1], the system named is Leishmania mexicana. Kind of assay: Antileishmanial activity against 5FU resistant Leishmania mexicana after 16 hrs by Alamar Blue assay. In general terms: Resazurin is reduced to fluorescent resorufin, in cell work by metabolically active cells.
Assay [2] deals with Trypanosoma brucei. Nature of the assay: Antiprotozoal activity against bloodstream form of wild type Trypanosoma brucei after 16 hrs by Alamar Blue assay.
For assay [3], the system named is Leishmania mexicana. Nature of the assay: Antileishmanial activity against wild type Leishmania mexicana after 16 hrs by Alamar Blue assay.
The subject of assay [4] is Trypanosoma brucei. Kind of assay: Resistance factor, ratio of EC50 for 5FU resistant Trypanosoma brucei to EC50 for wild type Trypanosoma brucei.
In assay [5] the test system is Leishmania mexicana. Nature of the assay: Resistance factor, ratio of EC50 for 5FU resistant Leishmania mexicana to EC50 for wild type Leishmania mexicana.
Assay [6] concerns Trypanosoma brucei. Kind of assay: Antiprotozoal activity against bloodstream form of multi-drug resistant Trypanosoma brucei B48 after 16 hrs by Alamar Blue assay. The conditions noted are these: B48, 16 h.
Assay [7] relates to Trypanosoma brucei. Nature of the assay: Antiprotozoal activity against PYR6-5 deficient bloodstream form of 5-FU hypersensitive Trypanosoma brucei after 16 hrs by Alamar Blue assay.
The test system of assay [8] is Trypanosoma brucei. Nature of the assay: Resistance factor, ratio of EC50 for multi-drug resistant Trypanosoma brucei B48 to EC50 for wild type Trypanosoma brucei.
Assay [9] relates to Trypanosoma brucei. Nature of the assay: Resistance factor, ratio of EC50 for PYR6-5 deficient bloodstream form of 5-FU hypersensitive Trypanosoma brucei to EC50 for wild type Trypanosoma brucei.
Assay [10] has as its system Trypanosoma brucei. Kind of assay: Antiprotozoal activity against bloodstream form of 5FU resistant Trypanosoma brucei after 16 hrs by Alamar Blue assay.

As usually defined, the EC50 is the concentration giving half of the maximal effect. A lower EC50 goes with an effect from little substance. With `O=c1[nH]cc(F)c(=O)[nH]1` [FLUOROURACIL], the EC50 in the assay with Leishmania mexicana [1] turned out to be 2470 µM; in the assay with Trypanosoma brucei [2], 66 µM; in the assay on Leishmania mexicana [3], 7.7 µM; in the assay on Trypanosoma brucei [6], 74.6 µM; in the assay with Trypanosoma brucei [7] it was 2.3 µM; in the assay on Trypanosoma brucei [10], 3900 µM. Moreover, the “Ratio EC50” value turned out to be 59.17 in the assay on Trypanosoma brucei [4], 322 in the assay with Leishmania mexicana [5], 1.1 in the assay with Trypanosoma brucei [8] and 0.034 in the assay on Trypanosoma brucei [9].

As for `N#Cc1cccc(C(=O)O[C@@H]2C=C[C@H](n3ccc(=O)[nH]c3=O)C2)c1`, the EC50 is 96.3 µM with Leishmania mexicana [1]; 37.8 µM in the assay on Trypanosoma brucei [2]; 94.7 µM in the assay on Leishmania mexicana [3]; 36.4 µM in the assay on Trypanosoma brucei [6]; 34.9 µM with Trypanosoma brucei [7]; 31.3 µM in the assay with Trypanosoma brucei [10]. The “Ratio EC50” value with Trypanosoma brucei [4] came out at 0.83; with Leishmania mexicana [5], 1.02; in the assay on Trypanosoma brucei [8], 1; in the assay with Trypanosoma brucei [9], 0.92.

In the case of `Cc1cc(=O)n(C(=O)c2ccccc2)c(=O)n1[C@H]1C=C[C@@H](OC(=O)c2ccccc2)C1`, the EC50 was determined as 22.6 µM with Leishmania mexicana [1]; 33.1 µM with Trypanosoma brucei [2]; 26.1 µM with Leishmania mexicana [3]; 34 µM in the assay on Trypanosoma brucei [6]; 32.3 µM in the assay on Trypanosoma brucei [7]; 27.7 µM with Trypanosoma brucei [10]. Further, the “Ratio EC50” value worked out at 0.84 in the assay with Trypanosoma brucei [4], 0.86 in the assay on Leishmania mexicana [5], 1 with Trypanosoma brucei [8] and 0.98 in the assay with Trypanosoma brucei [9].

For `O=C(O[C@@H]1C=C[C@H](n2ccc(=O)n(Cc3ccccc3)c2=O)C1)c1ccccc1`, the concentration giving a half-maximal response (EC50) with Leishmania mexicana [1] is 46.3 µM; with Trypanosoma brucei [2] it was 29.1 µM; with Leishmania mexicana [3], 34.5 µM; in the assay with Trypanosoma brucei [6], 25.5 µM; in the assay with Trypanosoma brucei [7] it was 27.7 µM; in the assay with Trypanosoma brucei [10] it was 21 µM. For the same molecule, the “Ratio EC50” value is reported as 0.72 with Trypanosoma brucei [4], 1.34 in the assay on Leishmania mexicana [5], 0.9 in the assay with Trypanosoma brucei [8] and 0.95 in the assay with Trypanosoma brucei [9].

For `Cc1cc(=O)[nH]c(=O)n1[C@H]1C=C[C@@H](O)C1`, the EC50 was determined as 102 µM in the assay on Leishmania mexicana [1]; 35.1 µM with Trypanosoma brucei [2]; 97.7 µM with Leishmania mexicana [3]; 38.7 µM in the assay on Trypanosoma brucei [6]; 32.2 µM in the assay with Trypanosoma brucei [7]; 28.8 µM in the assay with Trypanosoma brucei [10]. In addition, the “Ratio EC50” value is on record as 0.82 in the assay on Trypanosoma brucei [4], 1.04 in the assay with Leishmania mexicana [5], 1.1 with Trypanosoma brucei [8] and 0.92 in the assay on Trypanosoma brucei [9].

Turning to `COc1ccc(Cn2c(=O)cc(C)n([C@H]3C=C[C@@H](OC(=O)c4ccccc4)C3)c2=O)cc1`, the EC50 in the assay on Leishmania mexicana [1] was determined as 43.6 µM; in the assay on Trypanosoma brucei [2], 30.5 µM; in the assay with Leishmania mexicana [3], 33.8 µM; in the assay on Trypanosoma brucei [6], 27.2 µM; with Trypanosoma brucei [7], 28.3 µM; with Trypanosoma brucei [10], 20.3 µM. Besides, the “Ratio EC50” value with Trypanosoma brucei [4] was determined as 0.66; in the assay with Leishmania mexicana [5], 1.29; in the assay with Trypanosoma brucei [8], 0.9; with Trypanosoma brucei [9], 0.93.

`N#Cc1cccc(C(=O)O[C@@H]2C=C[C@H](n3ccc(=O)n(Cc4ccccc4)c3=O)C2)c1`: the EC50 with Leishmania mexicana [1] was found to be 52.6 µM; in the assay on Trypanosoma brucei [2] it was 27.9 µM; in the assay on Leishmania mexicana [3], 45.5 µM; with Trypanosoma brucei [6], 25 µM; with Trypanosoma brucei [7], 26.4 µM; with Trypanosoma brucei [10] it was 21.4 µM. Also, the “Ratio EC50” value in the assay with Trypanosoma brucei [4] turned out to be 0.76; in the assay with Leishmania mexicana [5], 1.16; in the assay with Trypanosoma brucei [8], 0.9; with Trypanosoma brucei [9], 0.94.

Regarding `CCCCCCCCCCCCC#Cc1cn([C@H]2C=C[C@@H](O)C2)c(=O)n([C@H]2C=C[C@@H](O)C2)c1=O`, the EC50 in the assay on Leishmania mexicana [1] was 11.4 µM; in the assay on Trypanosoma brucei [2] it was 8 µM; in the assay on Leishmania mexicana [3] it was 11.8 µM; with Trypanosoma brucei [6] it was 9 µM; with Trypanosoma brucei [7], 9.2 µM; with Trypanosoma brucei [10], 7.5 µM. In addition, the “Ratio EC50” value with Trypanosoma brucei [4] was determined as 0.94; in the assay on Leishmania mexicana [5] it was 0.97; in the assay with Trypanosoma brucei [8], 1.1; in the assay with Trypanosoma brucei [9], 1.15.

Values taken from ChEMBL document CHEMBL4020806, “Evaluation of the antiprotozoan properties of 5'-norcarbocyclic pyrimidine nucleosides” (Bioorg Med Chem Lett, 2017).
